Laboratory results from ChEMBL document CHEMBL5316297, “Mechanistic Insight of Synthesized 1,4-Dihydropyridines as an Antidiabetic Sword against Reactive Oxygen Species” (J Med Chem, 2023).
pIC50: −log10 of the molar value. The source made the active and inactive calls. The rule behind the calls is not given here.

How the values were obtained:
[1] = biological target: T1, Dipeptidyl peptidase 4 (Homo sapiens, UniProt P27487); experiment: Inhibition of DPP-4 (unknown origin) incubated for 30 mins in presence of substrate by fluorescence based analysis relative to sitagliptin
Target sequence in this assay (P27487 whole entry, looked up): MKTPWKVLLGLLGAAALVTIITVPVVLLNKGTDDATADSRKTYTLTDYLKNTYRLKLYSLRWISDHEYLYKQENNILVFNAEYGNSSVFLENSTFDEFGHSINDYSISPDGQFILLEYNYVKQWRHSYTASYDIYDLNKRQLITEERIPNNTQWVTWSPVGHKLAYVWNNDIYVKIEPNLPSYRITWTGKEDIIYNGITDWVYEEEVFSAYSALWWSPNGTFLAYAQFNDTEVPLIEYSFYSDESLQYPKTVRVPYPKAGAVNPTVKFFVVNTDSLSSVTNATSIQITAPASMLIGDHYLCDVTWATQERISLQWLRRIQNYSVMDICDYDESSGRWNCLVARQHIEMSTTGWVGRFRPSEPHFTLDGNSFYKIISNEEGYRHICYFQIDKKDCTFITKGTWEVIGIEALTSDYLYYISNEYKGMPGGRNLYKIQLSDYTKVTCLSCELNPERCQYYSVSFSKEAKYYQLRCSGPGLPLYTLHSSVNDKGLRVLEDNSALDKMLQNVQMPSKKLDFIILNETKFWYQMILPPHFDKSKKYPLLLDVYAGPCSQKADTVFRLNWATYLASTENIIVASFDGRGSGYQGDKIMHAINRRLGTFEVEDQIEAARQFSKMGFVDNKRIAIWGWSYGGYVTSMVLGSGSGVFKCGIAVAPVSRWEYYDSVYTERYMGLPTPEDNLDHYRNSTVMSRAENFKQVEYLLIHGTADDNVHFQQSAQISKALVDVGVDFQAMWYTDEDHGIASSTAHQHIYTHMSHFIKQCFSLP

[2] = Acute toxicity in Swiss albino mouse assessed as effect on mortality up to 2000 mg/kg, po administered for 14 days; assay type: organism-based; settings: in vivo, 336 h, time 14 day
[3] = biological target: T2, Alpha amylase (Homo sapiens, UniProt P0DUB6); experiment: Inhibition of alpha amylase (unknown origin) measured after 20 to 25 mins
T2 sequence (P0DUB6 whole entry): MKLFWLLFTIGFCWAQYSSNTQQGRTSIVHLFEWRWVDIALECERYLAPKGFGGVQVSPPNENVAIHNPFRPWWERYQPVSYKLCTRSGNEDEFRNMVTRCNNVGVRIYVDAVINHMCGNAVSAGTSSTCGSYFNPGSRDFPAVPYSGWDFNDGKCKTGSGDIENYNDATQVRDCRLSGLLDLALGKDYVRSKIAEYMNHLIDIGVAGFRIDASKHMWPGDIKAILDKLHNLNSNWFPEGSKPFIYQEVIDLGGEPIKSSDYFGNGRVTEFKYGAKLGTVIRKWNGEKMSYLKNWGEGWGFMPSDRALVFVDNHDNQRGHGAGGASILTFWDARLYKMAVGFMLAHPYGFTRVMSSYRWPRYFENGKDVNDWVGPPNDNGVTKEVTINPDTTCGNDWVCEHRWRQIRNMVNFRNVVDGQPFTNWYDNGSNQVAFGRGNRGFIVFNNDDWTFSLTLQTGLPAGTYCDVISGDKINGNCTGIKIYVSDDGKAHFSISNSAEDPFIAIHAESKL

[4] = tested on: Mus musculus; experiment: Antidiabetic activity against high fat diet-STZ-induced diabetic Swiss albino mouse model assessed as reduction in blood glucose level at 0.2 mmol/Kg/day, po administered for 14 days relative to control; assay type: functional; parameters: scale not given: the % may be the effect or the level left; settings: time 14 day
[5] = tested on: Mus musculus; experiment: Antidiabetic activity against high fat diet-STZ-induced diabetic Swiss albino mouse model assessed as reduction in blood glucose level at 0.2 mmol/Kg/day, po administered for 14 days; assay type: functional; settings: time 14 day
[6] = tested on: INS1; experiment: Induction of apoptosis in rat INS1 cells assessed as necrotic cells at 1 uM incubated for 36 hrs by Annexin V-FITC/ propidium iodide staining based flow cytometry analysis (reference value: 1.15%); assay type: functional
[7] = tested on: voltage dependent L/T-type calcium channel; experiment: Inhibition of voltage dependent L/T-type calcium channel in human SH-SY5Y cells; settings: SH-SY5Y cells
[8] = Cytotoxicity against human HCN-1A cells assessed as cell growth inhibition; assay type: toxicity, cell-based
[9] = tested on: Mus musculus; experiment: Antidiabetic activity against high fat diet-STZ-induced diabetic Swiss albino mouse model assessed as induction of beta cell regeneration in pancreas at 0.2 mmol/kg/day, po administered for 14 days by haematoxylin and eosin staining based analysis; assay type: functional, organism-based; settings: Pancreatic beta cell, time 14.0 day
[10] = biological target: T1, Dipeptidyl peptidase 4; experiment: Inhibition of DPP-4 (unknown origin) incubated for 30 mins in presence of substrate by fluorescence based analysis
Target sequence in this assay (P27487 whole entry): as the sequence (P27487 whole entry, looked up) above

[11] = Cytotoxicity against human BJ cells assessed as cell growth inhibition; assay type: toxicity, cell-based
[12] = biological target: voltage dependent L-type calcium channel (Rattus norvegicus, UniProt P22002+P27732+Q02485); experiment: Inhibition of voltage dependent L-type calcium channel in rat A7R5 cells
[13] = Cytotoxicity against human WPE1-NA22 cells assessed as cell growth inhibition; assay type: toxicity, cell-based
[14] = tested on: INS1; experiment: Induction of rat INS1 cells regeneration incubated for 24 hrs by CCK8 assay; assay type: functional, cell-based
[15] = Cytotoxicity against human THLE-2 cells assessed as cell growth inhibition at 10 uM relative to control; assay type: toxicity, cell-based; settings: read-out: GI
[16] = Cytotoxicity against human THLE-2 cells assessed as cell growth inhibition; assay type: toxicity, cell-based
[17] = AUC in Swiss albino mouse plasma at 0.2 mmol/Kg, po measured after 24 hrs by HPLC analysis; assay type: ADME, organism-based; parameters: dose 0.2 mmol/Kg, time 24 hrs, route po; settings: in vivo
[18] = tested on: Mus musculus; experiment: Antioxidant activity against high fat diet-STZ-induced diabetic Swiss albino mouse model assessed as serum catalase level at 0.2 mmol/Kg/day, po administered for 14 days (reference value: 378.22+/- 14.45 U/ml); assay type: functional; settings: time 14 day
[19] = tested on: INS1; experiment: Induction of apoptosis in rat INS1 cells assessed as total apoptotic cells at 1 uM incubated for 36 hrs by Annexin V-FITC/ propidium iodide staining based flow cytometry analysis (reference value: 0.53%); assay type: functional
[20] = tested on: Mus musculus; experiment: Antidiabetic activity against high fat diet-STZ-induced diabetic Swiss albino mouse model assessed as serum insulin level at 0.2 mmol/Kg/day, po administered for 14 days by ELISA method (reference value: 16.37 +/- 0.62 uU/ml); assay type: functional; settings: time 14 day
[21] = biological target: T3, Sodium/glucose cotransporter 2 (Homo sapiens, UniProt P31639); experiment: Inhibition of human SGLT2 by liquid scintillation counter analysis
T3 sequence (P31639 whole entry): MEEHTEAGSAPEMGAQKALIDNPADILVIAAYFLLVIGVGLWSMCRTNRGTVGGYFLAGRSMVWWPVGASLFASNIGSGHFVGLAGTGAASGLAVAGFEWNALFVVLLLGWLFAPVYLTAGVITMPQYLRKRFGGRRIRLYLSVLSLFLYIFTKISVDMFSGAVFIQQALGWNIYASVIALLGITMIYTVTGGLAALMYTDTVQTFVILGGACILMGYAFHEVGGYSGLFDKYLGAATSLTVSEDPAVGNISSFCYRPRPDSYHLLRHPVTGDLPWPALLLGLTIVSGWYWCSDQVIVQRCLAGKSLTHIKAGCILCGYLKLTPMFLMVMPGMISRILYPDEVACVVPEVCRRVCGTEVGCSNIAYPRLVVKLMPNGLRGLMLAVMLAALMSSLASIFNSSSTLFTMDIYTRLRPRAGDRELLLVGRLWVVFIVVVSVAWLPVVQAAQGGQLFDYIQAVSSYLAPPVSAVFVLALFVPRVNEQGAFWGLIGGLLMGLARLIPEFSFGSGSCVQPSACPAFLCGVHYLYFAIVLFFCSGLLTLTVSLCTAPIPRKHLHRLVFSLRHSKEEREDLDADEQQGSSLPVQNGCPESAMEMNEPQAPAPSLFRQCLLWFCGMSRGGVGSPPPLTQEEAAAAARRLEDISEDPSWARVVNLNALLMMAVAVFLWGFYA

[22] = tested on: Mus musculus; experiment: Antidiabetic activity against high fat diet-STZ-induced diabetic Swiss albino mouse model assessed as reduction in blood glucose level at 0.2 mmol/Kg/day, po administered for 14 days relative to glimepiride; assay type: functional; parameters: scale not given: the % may be the effect or the level left; settings: time 14 day
[23] = tested on: Mus musculus; experiment: Antioxidant activity against high fat diet-STZ-induced diabetic Swiss albino mouse model assessed as serum MDA level at 0.2 mmol/Kg/day, po administered for 14 days (reference value: 8.70+/- 0.09 nmol/ml); assay type: functional; settings: time 14 day
[24] = Cytotoxicity against human ECT1/E6E7 cells assessed as cell growth inhibition at 10 uM relative to control; assay type: toxicity, cell-based; settings: read-out: GI
[25] = Toxicity in high fat diet-STZ-induced diabetic Swiss albino mouse model assessed as changes in body weight at 0.2 mmol/Kg/day, po administered for 14 days (reference value: 26.6 to 27.8 g); assay type: organism-based; settings: in vivo, 336 h, time 14 day
[26] = tested on: Mus musculus; experiment: Antidiabetic activity against high fat diet-STZ-induced diabetic Swiss albino mouse model assessed as insulin resistance by measuring serum IL6 level at 0.2 mmol/Kg/day, po administered for 14 days by ELISA method (reference value: 39.30+/-4.14 pg/ml); assay type: functional; settings: time 14 day

With `CCOC(=O)C1=C(C)NC(C)=C(C(=O)OCC)C1c1cccc2c1OCO2` the inhibition [1] was < 1%, the Activity [2] was “Non-Toxic” and the IC50 [3] was 17.32 µM. The Activity [4] was 72.97%, the Activity [5] was 80.6 mg/dL and the Activity [6] was 1.46%. For the same molecule, the pIC50 [7] was 4.78, the GI50 [8] was 28.7 µM and the Activity [9] was “Active”. For the same molecule, the pIC50 [10] was 3.55, the GI50 [11] was 15.2 µM and the pIC50 [12] was 4.90. The GI50 [13] was 24.9 µM, the Activity [14] was “Dose-Dependent Effect” and the inhibition at 10 µM [15] was 18.3%. It also gave a GI50 [16] of 67.8 µM, an AUC [17] of 36.7 ng·h/mL and an Activity [18] of 271.11 U/ml. For the same molecule, the Activity [19] was 0.42%, the Activity [20] was 16.31 uU/ml and the pIC50 [21] was 3.39. For the same molecule, the Activity [22] was 218%, the Activity [23] was 8.61 nmol/mL and the inhibition at 10 µM [24] was 18.9%. For the same molecule, the Activity [25] was 26.9 g and the Activity [26] was 96.07 pg/mL.
